In PMC3538380 (Stem cells (Dayton, Ohio), 2013):
pIC50: −log10 of the molar value.

Tests used:
[1] = target: purified GAPDH enzyme from rabbit muscle (Oryctolagus cuniculus, UniProt P46406); test: GAPDH enzymatic assay, NADH fluorescence; type: biochemical
GAPDH in GSC11 cells = GAPDH in GSC11 cells (Homo sapiens, UniProt P04406); test: GAPDH activity in lysate of treated cells, NADH fluorescence; type: cell-based
Sequence of GAPDH in GSC11 cells (P04406 2-335): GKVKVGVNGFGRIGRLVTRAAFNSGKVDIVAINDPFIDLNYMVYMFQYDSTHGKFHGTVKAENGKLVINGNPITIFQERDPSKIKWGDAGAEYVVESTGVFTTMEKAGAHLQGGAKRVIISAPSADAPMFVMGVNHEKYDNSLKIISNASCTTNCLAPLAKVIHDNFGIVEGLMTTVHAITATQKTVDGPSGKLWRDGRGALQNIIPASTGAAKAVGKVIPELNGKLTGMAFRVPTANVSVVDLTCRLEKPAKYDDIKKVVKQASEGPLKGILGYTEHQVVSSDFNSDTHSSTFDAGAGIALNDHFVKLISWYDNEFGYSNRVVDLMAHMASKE

Sequence of purified GAPDH enzyme from rabbit muscle (P46406 whole entry): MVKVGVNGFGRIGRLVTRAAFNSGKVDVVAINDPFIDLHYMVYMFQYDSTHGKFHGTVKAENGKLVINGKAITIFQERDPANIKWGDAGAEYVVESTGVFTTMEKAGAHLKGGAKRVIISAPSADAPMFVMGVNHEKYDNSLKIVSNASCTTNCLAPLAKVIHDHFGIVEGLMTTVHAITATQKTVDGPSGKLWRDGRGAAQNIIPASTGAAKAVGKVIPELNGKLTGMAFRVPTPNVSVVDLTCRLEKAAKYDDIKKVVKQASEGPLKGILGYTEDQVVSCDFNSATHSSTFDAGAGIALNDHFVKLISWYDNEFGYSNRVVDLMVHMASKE

SMILES	pIC50 [1]	inhibition at 10 µM (GAPDH in GSC11 cells; read-out: % inhibition at 10 μM) [%]	inhibition at 200 µM (GAPDH in GSC11 cells; read-out: % inhibition at 200 μM) [%]
CCCOC(=O)C(=O)CBr [3-BrOP, 3-bromo-2-oxopropionate-1-propyl ester]	~5.00	~60	–
O=NN(CCCl)C(=O)NCCCl [BCNU]	~3.70	–	~60
